Patent publication US9149475B2, “Protein kinase C inhibitors and uses thereof” (Rigel Pharmaceuticals, Inc., priority 2009, dated 2015)
Where a name gives a salt, the structure may show the parent alone.

Tested on: Human primary T cells
Experiment: IL-2 ELISA, human primary T cell, anti-CD3+CD28+ (whole cell assay)
Type: cell-based
Settings: human primary T cells stimulated with anti-CD3 + anti-CD28, 24 hours
Method in brief: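 PBMC-derived T cells, pre-expanded on αCD3/αCD28 with IL-2 and then washed free of IL-2, were preincubated with compound for 1 hr at 37° C (100,000 cells/well). They were then stimulated on 1 μg/ml αCD3 plus 5 μg/ml αCD28 for 24 h, and supernatant IL-2 was measured by ELISA. The counter-assay used 0.5 ng/ml PMA plus 0.1 μM ionomycin instead.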

| IC50 (Homo sapiens, T-cell, 24 h) [nM] | IC50 [nM] | SMILES |
| --- | --- | --- |
| < 250 |  | CN1C(C)(C)CC(Nc2nc(Nc3ccc(OC4CCN(CCF)CC4)c(Cl)c3)ncc2F)CC1(C)C [III-97, N2-(3-chloro-4-(1-(2-fluoroethyl)piperidin-4-yloxy)phenyl)-5-fluoro-N4-(1,2,2,6,6-pentamethylpiperidin-4-yl)pyrimidine-2,4-diamine] |
| < 250 |  | CC(C)N1CCC(Oc2ccc(Nc3ncc(F)c(NC4CC(C)(C)NC(C)(C)C4)n3)cc2Cl)CC1 [III-98, N2-(3-chloro-4-(1-isopropylpiperidin-4-yloxy)phenyl)-5-fluoro-N4-(2,2,6,6-tetramethylpiperidin-4-yl)pyrimidine-2,4-diamine] |
| < 250 |  | CN1C(C)(C)CC(Nc2nc(Nc3ccc(O[C@H]4CCOC4)c(OC(F)F)c3)ncc2F)CC1(C)C [III-99, (S)—N2-(3-(difluoromethoxy)-4-(tetrahydrofuran-3-yloxy)phenyl)-5-fluoro-N4-(1,2,2,6,6-pentamethylpiperidin-4-yl)pyrimidine-2,4-diamine] |
| 250 to 500 |  | CC1(C)CC(Nc2nc(Nc3ccc(O[C@H]4CCOC4)c(OC(F)F)c3)ncc2F)CC(C)(C)N1 [III-100, (S)—N2-(3-(difluoromethoxy)-4-(tetrahydrofuran-3-yloxy)phenyl)-5-fluoro-N4-(2,2,6,6-tetramethylpiperidin-4-yl)pyrimidine-2,4-diamine] |
| < 250 |  | CC(C)N1CCC(Oc2ccc(Nc3ncc(F)c(NC4CC(C)(C)N(C)C(C)(C)C4)n3)cc2C(F)(F)F)CC1 [III-101, 5-fluoro-N2-(4-(1-isopropylpiperidin-4-yloxy)-3-(trifluoromethyl)phenyl)-N4-(1,2,2,6,6-pentamethylpiperidin-4-yl)pyrimidine-2,4-diamine] |
| 250 to 500 |  | CC(C)N1CCC(Oc2ccc(Nc3ncc(F)c(NC4CC(C)(C)NC(C)(C)C4)n3)cc2C(F)(F)F)CC1 [III-102, 5-fluoro-N2-(4-(1-isopropylpiperidin-4-yloxy)-3-(trifluoromethyl)phenyl)-N4-(2,2,6,6-tetramethylpiperidin-4-yl)pyrimidine-2,4-diamine] |
| 250 to 500 |  | CC(C)N1CCC(Oc2ccc(Nc3ncc(F)c(NC4CC(C)(C)N(C)C(C)(C)C4)n3)cc2OC(F)F)C(F)C1 (centres unmarked) [III-103, N2-(3-(difluoromethoxy)-4-(3-fluoro-1-isopropylpiperidin-4-yloxy)phenyl)-5-fluoro-N4-(1,2,2,6,6-pentamethylpiperidin-4-yl)pyrimidine-2,4-diamine trifluoroacetate salt] |
| 500 to 1000 |  | CC(C)N1CCC(Oc2ccc(Nc3ncc(F)c(NC4CC(C)(C)NC(C)(C)C4)n3)cc2OC(F)F)C(F)C1 (centres unmarked) [III-104, N2-(3-(difluoromethoxy)-4-(3-fluoro-1-isopropylpiperidin-4-yloxy)phenyl)-5-fluoro-N4-(2,2,6,6-tetramethylpiperidin-4-yl)pyrimidine-2,4-diamine trifluoroacetate salt] |
|  | < 250 | CC(C)N1CCC(Oc2ccc(Nc3ncc(F)c(NC4CC(C)(C)N(C)C(C)(C)C4)n3)cc2OC(F)F)C(F)C1 (centres unmarked) [III-105, N2-(3-(difluoromethoxy)-4-(3-fluoro-1-isopropylpiperidin-4-yloxy)phenyl)-5-fluoro-N4-(1,2,2,6,6-pentamethylpiperidin-4-yl)pyrimidine-2,4-diamine] |
|  | < 250 | CC(C)N1CCC(Oc2ccc(Nc3ncc(F)c(NC4CC(C)(C)NC(C)(C)C4)n3)cc2OC(F)F)C(F)C1 (centres unmarked) [III-106, N2-(3-(difluoromethoxy)-4-(3-fluoro-1-isopropylpiperidin-4-yloxy)phenyl)-5-fluoro-N4-(2,2,6,6-tetramethylpiperidin-4-yl)pyrimidine-2,4-diamine] |
| 500 to 1000 |  | CC(C)N1CCC(Oc2ccc(Nc3ncc(F)c(NC4CC(C)(C)N(C)C(C)(C)C4)n3)cc2OC(F)F)C(F)(F)C1 (centres unmarked) [III-107, N2-(4-(3,3-difluoro-1-isopropylpiperidin-4-yloxy)-3-(difluoromethoxy)phenyl)-5-fluoro-N4-(1,2,2,6,6-pentamethylpiperidin-4-yl)pyrimidine-2,4-diamine] |
